Measurements published in patent publication US20110306671A1, “AMIDE DERIVATIVES OF ETHACRYNIC ACID” (The Regents of the The University of California, priority 2008, published 2011).

What was measured:
Wnt/β-catenin signaling = assay: TOPflash reporter assay in transfected HEK293 cells; format: cell-based, human; details: for effect on EA-induced inhibition of Wnt/β-catenin signaling: TOPflash + Dvl, 50 μM EA with 1 mM NAC, 100 μM PDTC or 100 μM BHA, 24 hours
Primary CLL cells [1] = assay: Cell apoptosis assay (DiOC6/PI flow cytometry) in primary CLL cells; format: cell-based, human; details: 3 μM EA with NAC 1 mM or BHA 100 μM, 48 hours
Wnt signaling = assay: CellSensor LEF/TCF-bla SW480 cell-based assay (Wnt signaling inhibition); parameters: species or system human; details: for IC50: LEF/TCF-bla SW480 cells, 20 hours
Method: To determine the specificity of compounds on Wnt/[…]-catenin pathway inhibition, CellSensor LEF/TCF-bla SW480 cell-based assay (Invitrogen, Carlsbad, Calif.) was used according to the supplier's instructions, but modified for a 96 well format. Cells were plated at 25,000 cells/well in assay medium in 96-well black plates with clear bottom (Corning) the day prior to compound treatment.

Primary CLL cells [2] = assay: Cell viability assay (MTT) with primary CLL cells; details: for EC50: read-out: CLL Inhibition EC50, CLL survival, MTT, 48 hours
Normal PBMC = assay: Cell viability assay (MTT) with normal peripheral blood mononuclear cells; format: cell-based, human; details: data not shown
[3] = tested on: lymphoma and myeloma cells; details: Schmidt et al., 2009; cited from earlier work

| SMILES | IC50 (Wnt signaling) | EC50 (Primary CLL cells [2]) | further results |
| --- | --- | --- | --- |
| COc1ccc(O)c(C(C)(C)C)c1 [BHA, 3-t-butyl-4-hydroxyanisole] |  |  | effect on EA-induced inhibition of Wnt/β-catenin signaling (Wnt/β-catenin signaling): did not reverse; protection of CLL cells from EA-induced apoptosis (Primary CLL cells [1]): had no effect |
| CCCCS(=N)(=O)CCC(N)C(=O)O (stereo not drawn) [BSO, buthionine sulfoximine] |  |  | effect on Wnt/β-catenin signaling (Wnt/β-catenin signaling; cell-based system, data not shown): did not inhibit |
| C=C(CC)C(=O)c1ccc(OCC(=O)Nc2ccc(C(N)=O)cc2)c(Cl)c1Cl [Compound 4] | 4.76 µM | 3.7 µM |  |
| C=C(CC)C(=O)c1ccc(OCC(=O)NO)c(Cl)c1Cl [Compound 5] | 9.89 µM | 4.5 µM |  |
| C=C(CC)C(=O)c1ccc(OCC(=O)Nc2ccc(C(=O)O)cc2)c(Cl)c1Cl [Compound 6] | 5.81 µM | 5 µM |  |
| C=C(CC)C(=O)c1ccc(OCC(=O)NC(CS)C(=O)OCC)c(Cl)c1Cl (stereo not drawn) [Compound 7] | > 50 µM | 4.8 µM |  |
| C=C(CC)C(=O)c1ccc(OCC(=O)Nc2ccc(C#N)cc2)c(Cl)c1Cl [Compound 8] | 6.84 µM | 7.8 µM |  |
| C=C(CC)C(=O)c1ccc(OCC(=O)Nc2ccc(Cl)c(C(=O)O)c2)c(Cl)c1Cl [Compound 9] | > 50 µM | 15.9 µM |  |
| C=C(CC)C(=O)c1ccc(OCC(=O)Nc2cc(Cl)ccc2C(=O)O)c(Cl)c1Cl [Compound 10] | 9.62 µM | 13.8 µM |  |
| C=C(CC)C(=O)c1ccc(OCC(=O)Nc2cc(OC)c(OC)cc2C(=O)O)c(Cl)c1Cl [Compound 11] | > 50 µM | 21.9 µM |  |
| C=C(CC)C(=O)c1ccc(OCC(=O)Nc2ccc3c(c2)C(=O)NC3=O)c(Cl)c1Cl [Compound 12] | 4.88 µM | 2.5 µM |  |
| C=C(CC)C(=O)c1ccc(OCC(=O)Nc2nc3ccccc3s2)c(Cl)c1Cl [Compound 13] | 4.86 µM | 1.5 µM |  |
| C=C(CC)C(=O)c1ccc(OCC(=O)NC2CCN(CC(=O)OC)CC2)c(Cl)c1Cl [Compound 18] | > 50 µM | 10.6 µM |  |
| C=C(CC)C(=O)c1ccc(OCC(=O)Nc2cccc(C(=O)O)c2)c(Cl)c1Cl [Compound 19] | 5.85 µM | 20.6 µM |  |
| C=C(CC)C(=O)c1ccc(OCC(=O)NCCc2c[nH]c3ccccc23)c(Cl)c1Cl [Compound 20] | 10.7 µM | 5.9 µM |  |
| C=C(CC)C(=O)c1ccc(OCC(=O)Nc2ccc(C(=O)O)cn2)c(Cl)c1Cl [Compound 21] | > 50 µM | 14.9 µM |  |
| C=C(CC)C(=O)c1ccc(OCC(=O)Nc2ccc(C(=O)O)c(O)c2)c(Cl)c1Cl [Compound 22] | > 50 µM | > 25 µM |  |
| C=C(CC)C(=O)c1ccc(OCC(=O)Nc2ccc(C(=O)OC)cc2)c(Cl)c1Cl [Compound 23] | 11.4 µM | 4.1 µM |  |
| C=C(CC)C(=O)c1ccc(OCC(=O)Nc2ccc(Cc3ccc(N4C(=O)C5C6C=CC(C6)C5C4=O)cc3)cc2)c(Cl)c1Cl (stereo not drawn) [Compound 27] | 2.93 µM | 1.8 µM |  |
| C=C(CC)C(=O)c1ccc(OCC(=O)Nc2ccc(C(C)=O)cc2)c(Cl)c1Cl [Compound 28] | 5.06 µM | 3.9 µM |  |
| C=C(CC)C(=O)c1ccc(OCC(=O)Nc2ccc3[nH]cnc3c2)c(Cl)c1Cl [Compound 29] | 3.62 µM | 3.2 µM | inhibition of Wnt signaling (in words) (Wnt signaling): low micromolar concentrations; decrease of CLL survival (in words) (Primary CLL cells [2]): low micromolar concentrations |
| C=C(CC)C(=O)c1ccc(OCC(=O)Nc2nc(C(=NOC)C(=O)O)cs2)c(Cl)c1Cl [Compound 30] | > 50 µM | > 25 µM |  |
| C=C(CC)C(=O)c1ccc(OCC(=O)Nc2ccc(C(=O)NC(CCC(=O)OCC)C(=O)OCC)cc2)c(Cl)c1Cl (stereo not drawn) [Compound 31] | 2.61 µM | 2.1 µM | inhibition of Wnt signaling (in words) (Wnt signaling): low micromolar concentrations; decrease of CLL survival (in words) (Primary CLL cells [2]): low micromolar concentrations |
| C=C(CC)C(=O)c1ccc(OCC(=O)Nc2ccc3c(c2)C(=O)c2ccccc2C3=O)c(Cl)c1Cl [Compound 32] | 2.97 µM | 2.1 µM |  |
| C=C(CC)C(=O)c1ccc(OCC(=O)NCCCN2CCCC2=O)c(Cl)c1Cl [Compound 33] | > 50 µM | 13.8 µM |  |
| C=C(CC)C(=O)c1ccc(OCC(=O)Nc2ccc(C=CC(=O)OCC)cc2)c(Cl)c1Cl [Compound 38] | 3.79 µM | 1.7 µM |  |
| CCC(C)C(=O)c1ccc(OCC(=O)O)c(Cl)c1Cl (stereo not drawn) [Compound 42] |  | > 25 µM | inhibition of Wnt signaling (in words) (Wnt signaling): completely abrogated; IC50 (Wnt signaling; Homo sapiens): > 50 µM; decrease of CLL survival (in words) (Primary CLL cells [2]): completely abrogated |
| C=C(CC)C(=O)c1ccc(OC)c(Cl)c1Cl [Compound 43] |  |  | toxicity to peripheral blood mononuclear cells (PBMC) (Normal PBMC): highly toxic |
| CC(=O)N[C@@H](CS)C(=O)O [NAC, N-acetyl-L-cysteine] |  |  | effect on EA-induced inhibition of Wnt/β-catenin signaling (Wnt/β-catenin signaling): significantly prevented; protection of CLL cells from EA-induced apoptosis (Primary CLL cells [1]): significantly protected |
| Cc1cc(C2CCCCC2)n(O)c(=O)c1 [cic, ciclopiroxolamine] |  |  | induction of apoptosis [3]: significant induction of apoptosis |
